We go through 1 compound from patent US10022376B2 (Pfizer Inc., priority 2014, dated 2018).

Experiment [1] has as its system rhIFNγ stimulated STAT-3 phosphorylation in the A549 human epithelial cell line. The experiment is described as follows: A549 Cell Assay: Inhibition of pSTAT3. It counts as cell-based. Particulars: Homo sapiens; A549 cells. The gist of the method:
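A549 cells cultured 18 h were preincubated 1 h at 37° C with compound (0.3 nM to 10 μM, 0.1% DMSO) in DMEM with 0.2% BSA, then stimulated with 20 ng/mL rhIFNγ for 30 min. pSTAT3 Tyr705 in the lysates was measured by MSD immunoassay and expressed as percent inhibition.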

A further experiment deals with TYK2 (Homo sapiens (Human), UniProt P29597). The experiment is described as follows: JAK Caliper Enzyme Assay at 1 mM ATP (TYK2). It counts as biochemical. Particulars: Caliper assay at 1 mM ATP.
Experiment [2] concerns rhIL-2 stimulated STAT5 phosphorylation in isolated human T cells. The experiment is described as follows: Human T Cell Assay: Inhibition of pSTAT5. It counts as cell-based. The procedure: Human T Cell Assay: Inhibition of pSTAT5
An assay measuring the efficacy of JAK inhibitors on the functional response of recombinant human interleukin-2 (rhIL-2) stimulated STAT5 phosphorylation in isolated human T cells.
Human whole blood from individual donors was collected from the phlebotomy unit on-site. Peripheral venous blood (30-60 mL) from healthy volunteers of either sex was used as the source of T cells. T cell isolation from venous whole blood is routinely performed in a class II microbiological safety cabinet. Each sample was collected into between 3 and 6 10 mL Sodium Heparin Vacutainer tubes (BD #367874). The blood was poured into sterile 50 mL conicals (Corning #430828) and incubated with the T cell Rosette Sep Cocktail (Stemcell Technologies #15061) at 50 μL/mL antibody/blood ratio for 20 min. with shaking at room temperature. The blood/antibody mixture was then diluted 1:2 with PBS (Pfizer media prep)/2% FBS (Sigma #F4135) and 30 mL of the mixture was layered onto 15 mL Ficoll-Hypaque (GE Healthcare #17-1440-03) in 50 mL conical tubes. The tubes were then centrifuged at 1200×g for 20 min. at room temperature with no brake. Following centrifugation the T cells formed a buffy coat between the Ficoll-Hypaque and plasma layers. The plasma above the buffy coats was removed to within 5 mm of the buffy coat using a sterile Pasteur pipette. The buffy coats were then collected into fresh sterile 50 mL conical tubes containing 25 mL PBS/2% FBS (2 buffy coats per 50 mL conical). PBS/2% FBS was added to the buffy coat cells such that the final volume in the tube was 50 mL. The tubes were then centrifuged at 200×g for 15 min. at room temperature. The supernatant was discarded and the pellet re-suspended in 10-20 mL of DMEM (Pfizer media prep) Assay media/0.2% BSA (Miltenyi #130-091-376). A differential cell count was performed using a haemacytometer and cells were diluted to 1.1×10^6 T cells/ml in DMEM/0.2% BSA media. Compounds (10 mM-0.3 μM) were diluted with Hanks Balanced Salt Solution (HBSS) (Sigma #H6648) at 1:100 dilution. Immediately following cell isolation and compound dilution, 90 μl/well of T cells (˜1×10^6/ml) in assay medium (DMEM+0.2% BSA) was added to the VWR Deep well V bottom plate (#3906-520-300). 10 μl/well of compound (final concentration range of 10 μM-0.3 nM with 0.1% DMSO) or 0.1% DMSO in HBSS as controls was added to the appropriate wells. Plates were incubated for 1 hour at 37° C., 5% CO2 incubator. 10 μl of 3.3 μg/mL rhIL-2 (R&D Systems #202-IL) was added to the cells (300 ng/ml final assay concentration). Wells containing T cells, medium with 0.1% DMSO and no rhIL-2 were used as background controls. Plates were incubated for 15 min at 37° C. After rhIL-2 stimulation, 800 μL of cold PBS/0.1% BSA was added and the plates were centrifuged at 1400 rpm for 5 min at 4° C. Supernatant was aspirated and 100 μL of ice-cold MSD lysis buffer containing protease and phosphatase inhibitors from Phospho-STAT5a/b Tyr694 assay kit (Meso-Scale Discovery #K150IGD) was added to the cell pellet. Plates were shaken for 30 min. at 4° C. and then frozen overnight. The following day, cell lysates were assayed using the MSD ELISA kit protocol for detection of pSTAT5.
Data were collected and transformed into percent inhibition and calculated using the following formula: […]

The target in the next experiment is JAK1 (Homo sapiens (Human), UniProt P23458). The experiment is described as follows: JAK Caliper Enzyme Assay at 1 mM ATP (JAK1). It counts as biochemical. Conditions: Caliper assay at 1 mM ATP.
For a further experiment, the target named is JAK2 (Homo sapiens (Human), UniProt O60674). The experiment is described as follows: JAK Caliper Enzyme Assay at 1 mM ATP (JAK2). It counts as biochemical. Particulars: Caliper assay at 1 mM ATP.
Another experiment deals with JAK3 (Homo sapiens (Human), UniProt P52333). The experiment is described as follows: JAK Caliper Enzyme Assay at 1 mM ATP (JAK3). It counts as biochemical. Particulars: Caliper assay at 1 mM ATP.
JAK3, sequence (P52333 whole entry): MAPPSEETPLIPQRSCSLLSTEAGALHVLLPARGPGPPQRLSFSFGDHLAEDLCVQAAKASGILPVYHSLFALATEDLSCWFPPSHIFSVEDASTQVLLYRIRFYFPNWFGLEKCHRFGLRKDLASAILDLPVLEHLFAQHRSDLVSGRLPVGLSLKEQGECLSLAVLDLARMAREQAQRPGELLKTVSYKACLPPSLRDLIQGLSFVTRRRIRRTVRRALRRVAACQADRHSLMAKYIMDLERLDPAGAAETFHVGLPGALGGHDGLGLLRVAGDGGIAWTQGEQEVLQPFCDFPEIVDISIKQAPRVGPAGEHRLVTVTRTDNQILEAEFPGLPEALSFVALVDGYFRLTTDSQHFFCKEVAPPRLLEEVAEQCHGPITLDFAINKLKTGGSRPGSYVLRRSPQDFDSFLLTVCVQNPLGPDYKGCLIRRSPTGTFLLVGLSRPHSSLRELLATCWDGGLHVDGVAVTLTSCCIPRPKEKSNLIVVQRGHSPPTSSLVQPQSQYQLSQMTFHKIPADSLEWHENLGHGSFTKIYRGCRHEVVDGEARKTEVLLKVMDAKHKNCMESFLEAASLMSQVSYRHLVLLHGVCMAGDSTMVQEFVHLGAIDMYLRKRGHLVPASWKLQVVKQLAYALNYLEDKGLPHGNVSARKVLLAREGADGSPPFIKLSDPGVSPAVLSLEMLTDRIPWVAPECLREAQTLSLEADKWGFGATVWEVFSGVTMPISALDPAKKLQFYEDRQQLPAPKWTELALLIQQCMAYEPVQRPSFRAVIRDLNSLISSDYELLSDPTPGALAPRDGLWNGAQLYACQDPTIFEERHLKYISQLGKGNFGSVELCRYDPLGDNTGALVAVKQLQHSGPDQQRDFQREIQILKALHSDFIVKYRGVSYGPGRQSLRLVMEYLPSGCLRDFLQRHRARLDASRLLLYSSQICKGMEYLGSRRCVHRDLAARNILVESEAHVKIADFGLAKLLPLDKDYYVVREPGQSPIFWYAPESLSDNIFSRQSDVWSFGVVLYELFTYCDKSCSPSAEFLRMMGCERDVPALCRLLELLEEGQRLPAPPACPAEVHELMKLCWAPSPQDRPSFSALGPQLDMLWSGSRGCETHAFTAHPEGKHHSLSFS

JAK1, sequence (P23458 whole entry): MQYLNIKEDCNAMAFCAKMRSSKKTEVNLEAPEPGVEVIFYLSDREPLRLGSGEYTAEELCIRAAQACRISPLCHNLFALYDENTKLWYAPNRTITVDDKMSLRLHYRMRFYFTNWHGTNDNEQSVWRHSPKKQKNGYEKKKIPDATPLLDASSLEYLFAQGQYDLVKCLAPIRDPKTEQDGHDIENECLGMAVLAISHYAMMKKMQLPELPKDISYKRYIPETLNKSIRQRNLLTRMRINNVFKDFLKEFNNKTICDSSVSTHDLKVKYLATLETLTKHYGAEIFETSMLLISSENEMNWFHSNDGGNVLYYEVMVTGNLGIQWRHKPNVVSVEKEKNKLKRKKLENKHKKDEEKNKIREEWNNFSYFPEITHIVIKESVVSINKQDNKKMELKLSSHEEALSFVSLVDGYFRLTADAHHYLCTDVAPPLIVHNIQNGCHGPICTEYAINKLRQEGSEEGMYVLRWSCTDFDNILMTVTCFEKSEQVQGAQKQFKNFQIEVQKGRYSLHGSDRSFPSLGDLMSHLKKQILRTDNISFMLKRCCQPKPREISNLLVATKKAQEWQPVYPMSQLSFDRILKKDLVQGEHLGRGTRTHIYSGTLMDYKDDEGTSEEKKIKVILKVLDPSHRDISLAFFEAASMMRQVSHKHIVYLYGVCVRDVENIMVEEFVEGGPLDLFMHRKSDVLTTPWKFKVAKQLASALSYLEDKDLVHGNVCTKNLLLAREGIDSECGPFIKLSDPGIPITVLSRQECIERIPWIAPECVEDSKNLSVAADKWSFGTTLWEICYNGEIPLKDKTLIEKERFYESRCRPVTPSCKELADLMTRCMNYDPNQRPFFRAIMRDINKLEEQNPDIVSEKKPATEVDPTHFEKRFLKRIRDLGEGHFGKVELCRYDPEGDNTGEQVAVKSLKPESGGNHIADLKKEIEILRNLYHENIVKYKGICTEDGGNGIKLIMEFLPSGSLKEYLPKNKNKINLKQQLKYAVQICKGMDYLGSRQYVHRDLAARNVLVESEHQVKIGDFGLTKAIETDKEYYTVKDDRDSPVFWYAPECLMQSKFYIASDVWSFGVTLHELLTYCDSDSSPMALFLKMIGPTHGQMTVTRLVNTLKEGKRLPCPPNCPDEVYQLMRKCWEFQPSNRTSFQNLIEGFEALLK
JAK2, sequence (O60674 whole entry): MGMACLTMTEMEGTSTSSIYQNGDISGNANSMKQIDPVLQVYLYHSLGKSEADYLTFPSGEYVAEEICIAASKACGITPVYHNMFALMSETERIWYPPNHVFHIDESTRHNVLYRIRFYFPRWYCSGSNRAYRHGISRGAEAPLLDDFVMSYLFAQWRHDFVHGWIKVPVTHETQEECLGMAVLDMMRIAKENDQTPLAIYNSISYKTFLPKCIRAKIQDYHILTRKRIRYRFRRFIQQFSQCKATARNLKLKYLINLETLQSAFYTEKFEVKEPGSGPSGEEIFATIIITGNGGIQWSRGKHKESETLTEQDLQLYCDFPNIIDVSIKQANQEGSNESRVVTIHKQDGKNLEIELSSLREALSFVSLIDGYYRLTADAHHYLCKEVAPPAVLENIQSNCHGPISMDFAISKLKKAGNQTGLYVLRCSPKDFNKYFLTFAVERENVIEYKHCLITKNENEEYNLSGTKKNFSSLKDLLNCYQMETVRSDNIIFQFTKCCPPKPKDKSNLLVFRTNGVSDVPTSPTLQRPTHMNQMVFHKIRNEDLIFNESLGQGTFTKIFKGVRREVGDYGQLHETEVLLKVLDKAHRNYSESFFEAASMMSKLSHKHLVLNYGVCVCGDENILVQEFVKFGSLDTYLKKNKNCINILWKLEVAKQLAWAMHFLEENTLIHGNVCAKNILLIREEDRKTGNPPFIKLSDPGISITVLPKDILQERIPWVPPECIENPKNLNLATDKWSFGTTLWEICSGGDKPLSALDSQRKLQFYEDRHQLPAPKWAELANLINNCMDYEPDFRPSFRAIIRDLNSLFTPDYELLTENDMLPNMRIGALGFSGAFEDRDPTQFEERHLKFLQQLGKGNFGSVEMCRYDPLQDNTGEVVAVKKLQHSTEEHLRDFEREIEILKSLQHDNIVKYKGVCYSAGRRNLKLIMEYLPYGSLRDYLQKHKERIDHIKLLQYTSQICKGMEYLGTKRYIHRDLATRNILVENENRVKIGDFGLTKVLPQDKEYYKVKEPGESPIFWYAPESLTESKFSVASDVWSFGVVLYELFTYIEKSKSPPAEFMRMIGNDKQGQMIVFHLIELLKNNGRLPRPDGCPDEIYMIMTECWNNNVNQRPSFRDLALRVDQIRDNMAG
TYK2, sequence (P29597 whole entry): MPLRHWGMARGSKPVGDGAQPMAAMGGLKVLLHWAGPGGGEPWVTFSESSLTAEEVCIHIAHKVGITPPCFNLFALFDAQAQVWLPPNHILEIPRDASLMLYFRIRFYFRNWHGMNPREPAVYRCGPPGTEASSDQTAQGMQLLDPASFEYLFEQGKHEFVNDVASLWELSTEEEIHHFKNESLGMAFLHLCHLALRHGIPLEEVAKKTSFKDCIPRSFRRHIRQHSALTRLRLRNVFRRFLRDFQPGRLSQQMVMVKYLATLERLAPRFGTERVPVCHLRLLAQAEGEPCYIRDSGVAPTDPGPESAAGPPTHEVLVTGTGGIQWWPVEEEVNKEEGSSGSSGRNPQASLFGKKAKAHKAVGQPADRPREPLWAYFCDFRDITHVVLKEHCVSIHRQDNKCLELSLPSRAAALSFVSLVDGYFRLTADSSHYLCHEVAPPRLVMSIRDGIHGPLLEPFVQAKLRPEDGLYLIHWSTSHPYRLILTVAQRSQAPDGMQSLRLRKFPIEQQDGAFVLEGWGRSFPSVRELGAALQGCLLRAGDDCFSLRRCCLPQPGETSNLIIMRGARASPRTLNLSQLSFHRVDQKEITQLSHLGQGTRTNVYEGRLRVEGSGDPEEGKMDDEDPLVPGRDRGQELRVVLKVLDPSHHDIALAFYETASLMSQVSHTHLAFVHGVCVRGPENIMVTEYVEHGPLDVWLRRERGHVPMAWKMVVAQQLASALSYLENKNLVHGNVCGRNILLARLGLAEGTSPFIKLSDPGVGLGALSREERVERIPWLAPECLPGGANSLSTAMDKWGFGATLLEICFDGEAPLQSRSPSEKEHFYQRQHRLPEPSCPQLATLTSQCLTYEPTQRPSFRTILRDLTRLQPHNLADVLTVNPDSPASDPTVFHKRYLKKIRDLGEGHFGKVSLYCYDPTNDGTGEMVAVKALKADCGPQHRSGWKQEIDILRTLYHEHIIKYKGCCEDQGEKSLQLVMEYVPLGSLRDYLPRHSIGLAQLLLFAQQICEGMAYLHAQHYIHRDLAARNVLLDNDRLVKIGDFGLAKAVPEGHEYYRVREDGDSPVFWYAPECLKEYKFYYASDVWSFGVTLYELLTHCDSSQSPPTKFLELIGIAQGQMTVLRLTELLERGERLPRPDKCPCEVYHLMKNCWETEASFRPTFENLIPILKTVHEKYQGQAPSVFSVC

Regarding `CNC(=O)c1n[nH]c2cc(-c3cc(F)c(O)cc3CC(F)(F)F)nc(NCc3ccccc3N(C)S(C)(=O)=O)c12` [Example 20, 6-[5-fluoro-4-hydroxy-2-(2,2,2-trifluoroethyl)phenyl]-N-methyl-4-({2-[methyl(methylsulfonyl)amino]benzyl}amino)-1H-pyrazolo[4,3-c]pyridine-3-carboxamide], the 50% inhibitory concentration (IC50) in experiment [1] amounted to 18.8 nM; against TYK2, 20.9 nM; in experiment [2] it was 31.9 nM; against JAK1 it was 3.6 nM; on JAK2 it was 16.6 nM; on JAK3, 95.3 nM.
